Source: BindingDB's records for doi:10.1021/jm100555f (Harvard Medical School, 2010)

Assay: Inhibition of Bcr-Abl in mouse BA/F3 cells

Row | Compound | EC50 [nM]
1 | NC(=O)Cn1cc2c(Nc3ccc(OC(F)(F)F)cc3)ncnc2n1 [2-(4-(4-(trifluoromethoxy)phenylamino)-2H-pyrazolo[3,4-d]pyrimidin-2-yl)acetamide] | 4340
2 | FC(F)(F)Oc1ccc(Nc2cncc(NCCN3CCOCC3)n2)cc1 [N2-(2-morpholinoethyl)-N6-(4-(trifluoromethoxy)phenyl)pyrazine-2,6-diamine] | > 10000
3 | NC(=O)c1ccccc1-c1cc(Nc2ccc(OC(F)(F)F)cc2)ncn1 [2-(6-(4-(trifluoromethoxy)phenylamino)pyrimidin-4-yl)benzamide] | > 10000
4 | FC(F)(F)Oc1ccc(Nc2ccc(NCCN3CCOCC3)nn2)cc1 [N3-(2-morpholinoethyl)-N6-(4-(trifluoromethoxy)phenyl)pyridazine-3,6-diamine] | > 10000
5 | FC(F)(F)Oc1ccc(Nc2ncnc(NCCN3CCOCC3)n2)cc1 [N2-(2-morpholinoethyl)-N4-(4-(trifluoromethoxy)phenyl)-1,3,5-triazine-2,4-diamine] | > 10000
6 | FC(F)(F)Oc1ccc(Nc2nccc(NCCN3CCOCC3)n2)cc1 [N4-(2-morpholinoethyl)-N2-(4-(trifluoromethoxy)phenyl)pyrimidine-2,4-diamine] | > 10000
7 | FC(F)(F)Oc1ccc(Nc2ncnc3n[nH]cc23)cc1 [N-(4-(trifluoromethoxy)phenyl)-1H-pyrazolo[3,4-d]pyrimidin-4-amine] | 1300
8 | NC(=O)c1cccc(Oc2cc(Nc3ccc(OC(F)(F)F)cc3)ncn2)c1 [3-(6-(4-(trifluoromethoxy)phenylamino)pyrimidin-4-yloxy)benzamide] | 5000
9 | O=C(c1cc2c(Nc3ccc(OC(F)(F)F)cc3)ncnc2s1)N1CCC(O)CC1 [(4-hydroxypiperidin-1-yl)(4-(4-(trifluoromethoxy)phenylamino)thieno[2,3-d]pyrimidin-6-yl)methanone] | 1960
10 | FC(F)(F)c1ccc(Nc2cc(-c3ccncc3)ncn2)cc1 [6-(pyridin-4-yl)-N-(4-(trifluoromethyl)phenyl)pyrimidin-4-amine] | 1270
11 | FC(F)(F)c1ccc(Nc2cc(-c3ccncc3)ncn2)cn1 [6-(pyridin-4-yl)-N-(6-(trifluoromethyl)pyridin-3-yl)pyrimidin-4-amine] | 1240
12 | FC(F)(F)Oc1ccc(Nc2ncnc3nn(Cc4cccnc4)cc23)cc1 [2-(pyridin-3-ylmethyl)-N-(4-(trifluoromethoxy)phenyl)-2H-pyrazolo[3,4-d]pyrimidin-4-amine] | 1700
13 | COC(=O)c1cc2c(Nc3ccc(OC(F)(F)F)cc3)ncnc2s1 [methyl 4-(4-(trifluoromethoxy)phenylamino)thieno[2,3-d]pyrimidine-6-carboxylateMethyl 4-(4-(Trifluoromethoxy)-phenylamino)thieno[2,3-d]pyrimidine-6-carboxylate] | 5600
14 | FC(F)(F)Oc1ccc(CNc2cc(NCCN3CCOCC3)ncn2)cc1 [N4-(2-morpholinoethyl)-N6-(4-(trifluoromethoxy)benzyl)pyrimidine-4,6-diamine] | > 10000
15 | FC(F)(F)Oc1ccc(Oc2cc(NCCN3CCOCC3)ncn2)cc1 [N-(2-morpholinoethyl)-6-(4-(trifluoromethoxy)phenoxy)pyrimidin-4-amine] | > 10000
16 | FC(F)(F)Oc1cccc(Nc2cc(NCCN3CCOCC3)ncn2)c1 [N4-(2-morpholinoethyl)-N6-(3-(trifluoromethoxy)phenyl)pyrimidine-4,6-diamine] | > 10000
17 | FC(F)(F)Oc1ccc(Nc2ncnc3c2cnn3Cc2cccnc2)cc1 [1-(pyridin-3-ylmethyl)-N-(4-(trifluoromethoxy)phenyl)-1H-pyrazolo[3,4-d]pyrimidin-4-amine] | 7150
18 | O=C(O)c1cc2c(Nc3ccc(OC(F)(F)F)cc3)ncnc2s1 [4-(4-(trifluoromethoxy)phenylamino)thieno[2,3-d]pyrimidine-6-carboxylic acid] | > 10000
19 | OCCn1cc2c(Nc3ccc(OC(F)(F)F)cc3)ncnc2n1 [2-(4-(4-(Trifluoromethoxy)phenylamino)-2H-pyrazolo[3,4-d]pyrimidin-2-yl)ethanol] | 1320
20 | Fc1ccc(Nc2cc(-c3ccncc3)ncn2)cc1 [N-(4-fluorophenyl)-6-(pyridin-4-yl)pyrimidin-4-amine] | > 10000
21 | FC(F)(F)Oc1ccc(Nc2ncnc3[nH]ccc23)cc1 [N-(4-(Trifluoromethoxy)phenyl)-7H-pyrrolo[2,3-d]pyrimidin-4-amine] | > 10000
22 | FC(F)(F)Oc1ccc(Nc2ncnc3nn(C4CCCCC4)cc23)cc1 [2-cyclohexyl-N-(4-(trifluoromethoxy)phenyl)-2H-pyrazolo[3,4-d]pyrimidin-4-amine] | 2200
23 | O=C(NCCO)c1cc2c(Nc3ccc(OC(F)(F)F)cc3)ncnc2s1 [N-(2-Hydroxyethyl)-4-(4-(trifluoromethoxy)phenylamino)thieno[2,3-d]pyrimidine-6-carboxamide] | > 10000
24 | CCn1cc2c(Nc3ccc(OC(F)(F)F)cc3)ncnc2n1 [2-ethyl-N-(4-(trifluoromethoxy)phenyl)-2H-pyrazolo[3,4-d]pyrimidin-4-amine] | 1200
25 | FC(F)(F)Oc1ccc(Nc2ccnc(NCCN3CCOCC3)n2)cc1 [N2-(2-morpholinoethyl)-N4-(4-(trifluoromethoxy)phenyl)pyrimidine-2,4-diamine] | > 10000
26 | Cc1nc(-c2cc(Nc3ccc(OC(F)(F)F)cc3)ncn2)cs1 [6-(2-methylthiazol-4-yl)-N-(4-(trifluoromethoxy)phenyl)pyrimidin-4-amine] | 1230
27 | FC(F)(F)Oc1ccc(Nc2cc(N3CCOCC3)ncn2)cc1 [6-morpholino-N-(4-(trifluoromethoxy)phenyl)pyrimidin-4-amine] | 1800

These reach a lower EC50. Values come first.

Row | EC50 [nM] | Compound
28 | 970 | Cc1c(NCCN2CCOCC2)ncnc1Nc1ccc(OC(F)(F)F)cc1 [5-methyl-N4-(2-morpholinoethyl)-N6-(4-(trifluoromethoxy)phenyl)pyrimidine-4,6-diamine]
29 | 920 | FC(F)(F)c1ccc(Nc2cc(NCCN3CCOCC3)ncn2)cc1 [N4-(2-morpholinoethyl)-N6-(4-(trifluoromethyl)phenyl)pyrimidine-4,6-diamine]
30 | 918 | CCNC(=O)c1cc2c(Nc3ccc(OC(F)(F)F)cc3)ncnc2s1 [N-ethyl-4-(4-(trifluoromethoxy)phenylamino)thieno[2,3-d]pyrimidine-6-carboxamide]
31 | 810 | Cc1c(-c2cc(Nc3ccc(OC(F)(F)F)cc3)ncn2)cnn1-c1ccccc1 [6-(5-methyl-1-phenyl-1H-pyrazol-4-yl)-N-(4-(trifluoromethoxy)phenyl)pyrimidin-4-amine]
32 | 690 | FC(F)(F)Oc1ccc(Nc2ncnc3c2cnn3CC2CCOC2)cc1 (centres undefined) [1-((tetrahydrofuran-3-yl)methyl)-N-(4-(trifluoromethoxy)phenyl)-1H-pyrazolo[3,4-d]pyrimidin-4-amine]
33 | 490 | NC(=O)CCn1ccc2c(Nc3ccc(OC(F)(F)F)cc3)ncnc21 [3-(4-(4-(trifluoromethoxy)phenylamino)-7H-pyrrolo[2,3-d]pyrimidin-7-yl)propanamide]
34 | 480 | NC(=O)c1ccc(-c2cc(Nc3ccc(OC(F)(F)F)cc3)ncn2)cc1 [4-(6-(4-(trifluoromethoxy)phenylamino)pyrimidin-4-yl)benzamide]
35 | 400 | FC(F)(F)Oc1ccc(Nc2ncnc3c2cnn3C2CCCCC2)cc1 [1-cyclohexyl-N-(4-(trifluoromethoxy)phenyl)-1H-pyrazolo[3,4-d]pyrimidin-4-amine]
36 | 400 | FC(F)(F)Oc1ccc(Nc2ncnc3c2cnn3Cc2ccccc2)cc1 [1-benzyl-N-(4-(trifluoromethoxy)phenyl)-1H-pyrazolo[3,4-d]pyrimidin-4-amine]
37 | 380 | FC(F)(F)Oc1ccc(Nc2ncnc3c2ccn3CCN2CCOCC2)cc1 [7-(2-morpholinoethyl)-N-(4-(trifluoromethoxy)phenyl)-7H-pyrrolo[2,3-d]pyrimidin-4-amine]
38 | 350 | NC(=O)Cn1ncc2c(Nc3ccc(OC(F)(F)F)cc3)ncnc21 [2-(4-(4-(trifluoromethoxy)phenylamino)-1H-pyrazolo[3,4-d]pyrimidin-1-yl)acetamide]
39 | 340 | CNC(=O)c1cccc(-c2cc(Nc3ccc(OC(F)(F)F)cc3)ncn2)c1 [N-methyl-3-(6-(4-(trifluoromethoxy)phenylamino)pyrimidin-4-yl)benzamide]
40 | 330 | Nc1cccc(-c2cc(Nc3ccc(OC(F)(F)F)cc3)ncn2)c1 [6-(3-aminophenyl)-N-(4-(trifluoromethoxy)phenyl)pyrimidin-4-amine]
41 | 270 | CCCn1ncc2c(Nc3ccc(OC(F)(F)F)cc3)ncnc21 [1-propyl-N-(4-(trifluoromethoxy)phenyl)-1H-pyrazolo[3,4-d]pyrimidin-4-amine]
42 | 240 | O=C(c1cccc(-c2cc(Nc3ccc(OC(F)(F)F)cc3)ncn2)c1)N1CCOCC1 [morpholino(3-(6-(4-(trifluoromethoxy)phenylamino)pyrimidin-4-yl)phenyl)methanone]
43 | 170 | FC(F)(F)Oc1ccc(Nc2cc(-c3ccnc4[nH]ccc34)ncn2)cc1 [6-(1H-pyrrolo[2,3-b]pyridin-4-yl)-N-(4-(trifluoromethoxy)phenyl)pyrimidin-4-amine]
44 | 160 | CCCn1cc2c(Nc3ccc(OC(F)(F)F)cc3)ncnc2n1 [2-propyl-N-(4-(trifluoromethoxy)phenyl)-2H-pyrazolo[3,4-d]pyrimidin-4-amine]
45 | 160 | CC(C)(C)n1ncc2c(Nc3ccc(OC(F)(F)F)cc3)ncnc21 [1-tert-butyl-N-(4-(trifluoromethoxy)phenyl)-1H-pyrazolo[3,4-d]pyrimidin-4-amine]
46 | 140 | FC(F)(F)Oc1ccc(Nc2cc(-c3cccc4[nH]ccc34)ncn2)cc1 [6-(1H-indol-4-yl)-N-(4-(trifluoromethoxy)phenyl)pyrimidin-4-amine]
47 | 120 | NS(=O)(=O)c1ccc(-c2cc(Nc3ccc(OC(F)(F)F)cc3)ncn2)cc1 [4-(6-(4-(trifluoromethoxy)phenylamino)pyrimidin-4-yl)benzenesulfonamide]
48 | 90 | FC(F)(F)Oc1ccc(Nc2cc(-c3cn[nH]c3)ncn2)cc1 [6-(1H-pyrazol-4-yl)-N-(4-(trifluoromethoxy)phenyl)pyrimidin-4-amine]
49 | 48 | CN1CCN(C(=O)c2cc3c(Nc4ccc(OC(F)(F)F)cc4)ncnc3s2)CC1 [(4-methylpiperazin-1-yl)(4-(4-(trifluoromethoxy)phenylamino)thieno[2,3-d]pyrimidin-6-yl)methanone]
